Data reported in patent US8569374B2, “NADPH oxidase inhibition pharmacotherapies for obstructive sleep apnea syndrome and its associated morbidities” (The Trustees of the University of Pennsylvania, priority 2004, dated 2013).
“Also recorded” adds a separate entry of the source.

Legend:
iNOS mRNA = test: Taqman real-time PCR of iNOS gene response to LTIH, lateral basal forebrain; assay type: in vivo, mice; settings: apocynin throughout LTIH
Text: (§1) A detailed description of the long-term intermittent hypoxia (LTIH) protocol was recently published. An automated nitrogen/oxygen delivery profile system (Oxycycler model A84XOV; Biospherix, Redfield, N.Y.) produced brief reductions in housing chamber ambient oxygen levels from 21% to 10% for 5 sec every 90 sec, resulting in arterial oxyhemoglobin saturation fluctuations between 95-98% and 83-86%. Sham LTIH, with ambient FIO2 fluctuations from 21% to 19% every 90 sec, held arterial oxyhemoglobin values constant between 96-98%. Both conditions were produced for 10 hr of the lights-on period for a total of 8 wks. Humidity, ambient CO2 and environmental temperature were held constant. To determine if LTIH results in lasting increases in NADPH oxidase and microglial gene responses, real-time Taqman PCR was performed on laser-captured microdissections or macropunches of selected brain regions in mice exposed to sham LTIH or LTIH, two weeks into recovery to parallel sleep studies, using our methods, as previously published (12, 25). Real-time measurement of a NADPH oxidase subunit (p67^phox). […]

COX-2 mRNA = test: Taqman real-time PCR of COX-2 gene response to LTIH, lateral basal forebrain; assay type: in vivo, mice; settings: apocynin in DMSO vehicle throughout LTIH
Text: as §1

WT mice exposed to LTIH = test: Sleep/wake recordings and murine multiple sleep latency test after long-term intermittent hypoxia (LTIH); assay type: in vivo; settings: for sleep latency: vs LTIH DMSO vehicle-treated mice
Text: Ten-week old male C57BL/6J (B6) mice, gp91^phox−/− mice (B6.129S6-Cybb^tmldin) backcrossed 12 generations to C57BL/6J 000664 and gp91^phox+/+ (WT) backcrossed substrain C57BL/6J 000664 mice (Jackson Laboratory, Bar Harbor, Me.) were studied. Methods and study protocols were approved in full by the Institutional Animal Care and Use Committee of the University of Pennsylvania, conforming with the revised NIH Office of Laboratory Animal Welfare Policy. Food and water were provided ad libitum. Mice were confirmed pathogen free at the time of studies.
A detailed description of the long-term intermittent hypoxia (LTIH) protocol was recently published. An automated nitrogen/oxygen delivery profile system (Oxycycler model A84XOV; Biospherix, Redfield, N.Y.) produced brief reductions in housing chamber ambient oxygen levels from 21% to 10% for 5 sec every 90 sec, resulting in arterial oxyhemoglobin saturation fluctuations between 95-98% and 83-86%. Sham LTIH, with ambient FIO2 fluctuations from 21% to 19% every 90 sec, held arterial oxyhemoglobin values constant between 96-98%. Both conditions were produced for 10 hr of the lights-on period for a total of 8 wks. Humidity, ambient CO2 and environmental temperature were held constant.
To determine if NADPH oxidase inhibition would also prevent LTIH gene responses, a third series of mice examined for gene responses were WT mice treated systemically throughout LTIH or sham LTIH with 3 mg/kg/day apocynin (Sigma-Aldrich) in DMSO, DMSO or PBS delivered subcutaneously (n=10/group) by way of micro-osmotic pump (1002, Durect, Cupertino, Calif.).
After 8 wks of LTIH or sham LTIH exposures, mice were returned to normoxic conditions for 1 wk. Surgical implantation of electrodes and electrophysiological recordings followed using previously described electrode implantation methods (32). Following 3 d post-operative recovery, mice were connected to recording cables in individual cages, and 4 d later sleep recordings were initiated (beginning 2 wk into recovery from LTIH). Baseline sleep was recorded for 5 days. On recording day 6, a baseline murine multiple sleep latency test (MMSLT) was performed (4 nap opportunities between 2 p.m. and 4 p.m.) to measure baseline sleep propensity (33). On recording day 7, sleep deprivation was performed for 6 hours of the light period (8 a.m. to 2 p.m.), followed by a second MSLT and then recovery sleep was recorded for 12 h. The behavioral state acquisition and analysis program used for these studies was ACQ 3.4 (34), with modifications and behavioral state parameters as previously described (7, 9, 32). Primary variables were total sleep time/24 hr, total NREM sleep time/24 hr and REM sleep time/24 hr, and average sleep latency, before and after short-term sleep loss.
To further investigate the role of NADPH oxidase in the LTIH-induced hypersomnolence and sleepiness, a series of WT mice were implanted with osmotic pumps to systemically deliver either a selective NADPH oxidase inhibitor, apocynin at 3 mg/kg/day, vehicle (dimethylsulfoxide, DMSO) or buffered saline throughout LTIH exposure for 8 wks. Pumps were removed and mice were implanted for sleep recordings as described above for studies in gp91^phox null mice. Apocynin therapy prevented both LTIH reduced wake times and shortened sleep latency.

iNOS = iNOS activity in lateral basal forebrain homogenates ([14C] L-arginine to L-citrulline conversion); assay type: in vivo, mice; settings: for LTIH increase in iNOS activity: apocynin throughout LTIH
Experimental: FIG. 5. NADPH oxidase inhibition confers resistance to the long-term intermittent hypoxia (LTIH) proinflammatory response. Proinflammatory gene expression was measured in micropunches in the lateral basal forebrains in gp91^phox wild type controls (gp91^phox WT, n=10) and gp91^phox null mice (gp91^phox null, n=10) for A, TNF-a; B, COX-2 and C, iNOS mRNA copies/2 µg total RNA. D. Total NOS activity (left columns), measured as L-arginine conversion of [^14C] L-arginine to L-citrulline and iNOS activity (right columns) was measured using […] S-Ethyl-N-[4-trifluoromethyl)phenyl]isothiourea (ETPI) added to homogenates (12). […] A detailed description of the long-term intermittent hypoxia (LTIH) protocol was recently published. An automated nitrogen/oxygen delivery profile system (Oxycycler model A84XOV; Biospherix, Redfield, N.Y.) produced brief reductions in housing chamber ambient oxygen levels from 21% to 10% for 5 sec every 90 sec, resulting in arterial oxyhemoglobin saturation fluctuations between 95-98% and 83-86%. Sham LTIH, with ambient FIO2 fluctuations from 21% to 19% every 90 sec, held arterial oxyhemoglobin values constant between 96-98%. Both conditions were produced for 10 hr of the lights-on period for a total of 8 wks. Humidity, ambient CO2 and environmental temperature were held constant. To determine if NADPH oxidase inhibition would also prevent LTIH gene responses, a third series of mice examined for gene responses were WT mice treated systemically throughout LTIH or sham LTIH with 3 mg/kg/day apocynin (Sigma-Aldrich) in DMSO, DMSO or PBS delivered subcutaneously (n=10/group) by way of micro-osmotic pump (1002, Durect, Cupertino, Calif.). […] Lateral basal forebrain iNOS activity was compared in mice treated with or without apocynin throughout LTIH (FIG. 5D). Apocynin therapy, relative to saline therapy had no effect on baseline (sham LTIH) iNOS activity. […] Thus, apocynin therapy throughout LTIH prevented the expected increase in iNOS activity.

TNF-α mRNA = test: Taqman real-time PCR of TNF-α gene response to LTIH, lateral basal forebrain; assay type: in vivo, mice
Text: A detailed description of the long-term intermittent hypoxia (LTIH) protocol was recently published. An automated nitrogen/oxygen delivery profile system (Oxycycler model A84XOV; Biospherix, Redfield, N.Y.) produced brief reductions in housing chamber ambient oxygen levels from 21% to 10% for 5 sec every 90 sec, resulting in arterial oxyhemoglobin saturation fluctuations between 95-98% and 83-86%. Sham LTIH, with ambient FIO2 fluctuations from 21% to 19% every 90 sec, held arterial oxyhemoglobin values constant between 96-98%. Both conditions were produced for 10 hr of the lights-on period for a total of 8 wks. Humidity, ambient CO2 and environmental temperature were held constant. To determine if LTIH results in lasting increases in NADPH oxidase and microglial gene responses, real-time Taqman PCR was performed on laser-captured microdissections or macropunches of selected brain regions in mice exposed to sham LTIH or LTIH, two weeks into recovery to parallel sleep studies, using our methods, as previously published (12, 25). Real-time measurement of a NADPH oxidase subunit (p67^phox). To accomplish this, two weeks following conditions of either sham LTIH or LTIH, mice were perfused with PBS; brains were immediately frozen and sectioned (10 μm) for laser-capture microdissections of the following wake-active or hypoxia sensitive regions: frontal cortex (layer V), nucleus basalis […]/substantia inominata/horizontal diagonal band, hippocampus CA1, striatum, lateral hypothalamus, dorsal raphe nucleus, and locus coeruleus, or the following sleep-active adjacent brain regions: median septal diagonal band, medial preoptic area, and ventrolateral preoptic area, collecting 100 captures (40 μm diameter) per region in each mouse (n=6 mice/condition). RNA was purified and cDNA created for primer sets for primer/probe sets in Table 1, for Taqman real time PCR (SDS-7900HT, ABI). […] A second series of mice used for LTIH gene responses were gp91^phox-/- and +/+ mice exposed to either sham LTIH or LTIH for proinflammatory responses. […]

[1] = apocynin 3 mg/kg/day throughout LTIH

In the case of `COc1cc(C(C)=O)ccc1O` [apocynin, 4-hydroxy-3′-methoxy-acetophenon], the “reduction in iNOS mRNA” value (iNOS mRNA) is reported as 94%, the “COX-2 gene expression, reduction relative to sham LTIH” value (COX-2 mRNA) is reported as 65% and the “LTIH COX-2 response” value (COX-2 mRNA) is reported as “completely blocked the LTIH COX-2 response”. The NREMS time (WT mice exposed to LTIH; apocynin 3 mg/kg/day by osmotic pump throughout 8 wks LTIH, relative to saline and DMSO vehicle) was “reduced NREMS time”, the “wake time/24 hr” value (WT mice exposed to LTIH; apocynin 3 mg/kg/day by osmotic pump throughout 8 wks LTIH, relative to saline and DMSO vehicle, 2 wk into recovery) was “increased wake times; also recorded: prevented LTIH-induced impaired wakefulness and hypersomnolence” and the “sleep latency vs WT mice without intervention or sham LTIH” value (WT mice exposed to LTIH; [1]) was “not significantly different”. For the same compound, the sleep latency (WT mice exposed to LTIH; [1]) was “significantly higher than LTIH DMSO vehicle-treated mice”, the sleep latency (WT mice exposed to LTIH; apocynin 3 mg/kg/day throughout LTIH, listed as Apocynin) was “prevented LTIH reduced sleep latency” and the “reduction in iNOS activity, apocynin treated vs. untreated mice” value (iNOS; LTIH) was 60%. For the same compound, the “LTIH increase in iNOS activity” value (iNOS) was “prevented the LTIH increase in iNOS activity”, the “LTIH increase in iNOS activity” value (iNOS; listed as Apocynin) was “prevents the anticipated LTIH increase in iNOS activity” and the “baseline (sham LTIH) iNOS activity, relative to saline therapy” value (iNOS; sham LTIH) was “no effect”. The “LTIH increase in TNF-α gene expression (vs sham LTIH)” value (TNF-α mRNA; apocynin throughout LTIH) was “completely prevented the increases in TNF-α gene expression”, the “TNF-α response as % of the saline LTIH response” value (TNF-α mRNA; apocynin throughout LTIH) was 7% and the “LTIH TNF-α response, Apo vs. DMSO, % lower” value (TNF-α mRNA; apocynin vs DMSO vehicle during LTIH) was 73%.
